Results: patent US20240350485A1 (TARIS Biomedical LLC, priority 2021, published 2024)

Legend:
[1] = In vitro permeation screening of device materials; assay type: physicochemical; set-up: key: “O” is permeable (suitable for the stripe material); “A” is practically impermeable; “X” is impermeable (suitable for a base material, i.e., the non-stripe portion of a system body)
Procedure: A number of polymeric materials were tested to determine their suitability as a material of construction of an elastic system body for release of various erdafitinib formulations in a permeation-controlled release system. The materials included silicone, several thermoplastic polyurethane (TPUs) manufactured by Lubrizol Life Science (Bethlehem, PA).
In general, materials that are impermeable to erdafitinib, the API, are suitable for use as the base material in permeation systems. Materials that are permeable to the API are suitable for use as the stripe material in permeation systems. Platinum cured silicone, thermoplastic polyurethanes (TPUs), and ethylene vinyl acetate (EVA) materials were screened (Table 10). The test articles were filled with formulated API (powder or tablets), sealed, placed in foil pouches, and gamma irradiated (nominal 35 kGy). The systems were placed into simulated urine (pH 6.8), stored at 37° C., and sampled periodically. The amount of API in each sample was determined by high-performance liquid chromatography (HPLC) analysis.

[2] = In vitro release of prototype permeation systems in simulated urine (Table 5); assay type: physicochemical; conditions: simulated urine at various pHs
[3] = Stability in human urine; assay type: in vitro ADME; conditions: freshly collected human urine, 37° C.
Procedure: (§1) At the end of 6-hours post-dialysis incubation, drug was analyzed and the recovery was calculated against the spiked concentrations.

[4] = Stability in minipig urine; assay type: in vitro ADME; conditions: freshly collected minipig urine, 37° C.
Procedure: as §1

[5] = Stability in rat urine; assay type: in vitro ADME; conditions: freshly collected rat urine, 37° C.
Procedure: as §1

[6] = In vitro protein binding in rat urine; assay type: in vitro ADME
Procedure: (§2) Albuminuria/proteinuria had minimal effect on % free form in urine.
as §1

[7] = In vitro protein binding in minipig urine; assay type: in vitro ADME
Procedure: as §2, §1

[8] = In vitro protein binding in human urine; assay type: in vitro ADME
Procedure: as §2, §1

[9] = tested on: ERK1/2 phosphorylation; test: pERK/ERK in orthotopic bladder UM-UC-1 tumors by capillary immunoblotting; assay type: in vivo, nude rats
Excerpt: The signals for pERK1/2 were divided by the total ERK1/2 signal in the same sample and the mean of the pERK1/2 values for the corresponding vehicle-treated samples was set at a relative value of 1. At each timepoint, the pERK/ERK ratio for each tumor sample was divided by the mean pERK/ERK ratio derived from the corresponding control samples. There was 1 exception, as there were no vehicle-treated samples at the 120-hour timepoint, the pERK/ERK ratios for the erdafitinib-treated samples at the 120-hour timepoint were divided by the mean of the 48-hour vehicle-treated group.

[10] = tested on: orthotopic UM-UC-1 bladder tumors; test: Continuous bladder perfusion, orthotopic UM-UC-1 bladder cancer model
Procedure: Perfusion studies: The bladders of the study animals were cannulated on Day 1 and the animals were allowed to recover for 3 days. On Day 5, UM-UC-1 cells (2×10^6 cells) were injected into the lateral wall of each bladder. […] Based on the in vitro results, target urine concentrations of 0.5, 1.0, and 5.0 μg/mL were used in the perfusion experiments. Body weight, daily urine production, and daily water consumption were recorded. At necropsy, a plasma sample, bladder photographs, and bladder weight measurements were recorded.
The percent reduction in relative tumor weight between the control group and the drug perfusion groups was determined as an initial measure of efficacy. Bladder tissue and tumor samples were also submitted for analysis of FGFR signaling activity by determining the phosphorylated fibroblast growth factor receptor substrate (FRS)2a levels and the pERK to ERK ratio.

[11] = tested on: orthotopic RT-112 bladder tumor; test: Continuous bladder perfusion, RT-112 implanted into the bladder wall
Excerpt: Perfusion studies: The experimental study design was the same as described in Example 11 (FIG. 12), except that the perfusions were continued until the time of necropsy on Day 14.

[12] = Solubility as a function of pH; assay type: physicochemical; conditions: normal urine pH range of 5.5 to 7
[13] = In vitro release (IVR) of permeation prototypes in simulated urine; assay type: physicochemical; conditions: highest release rates at pH 5, significantly reduced at pH 8
Procedure: The drug formats evaluated included erdafitinib free base, erdafitinib free base plus HP-β-CD and erdafitinib salts, e.g. HCl salt.
The pH range for normal human urine is in the 5.5 to 7 range, but some disease states can result in higher urine pH values (pH 8). […] The base material for this tubing could be either AR-75A-B20 or AC-4075A-B20.
Drug and device constituents are described in Tables 11 and 12, respectively. In vitro release (IVR) testing was performed with both prototypes, using simulated urine at 3 different pH ranges as the release media: pH 5, 6.8, and 8 (n=3 systems tested in each media).

[14] = rats dosed orally, 2 and 7 hours
Procedure: Extracellular signal-regulated kinase (ERK)1/2 phosphorylation was assessed as a PD marker for FGFR kinase inhibition in tumors at various time points post administration/installation.

[15] = rat, in vivo
Excerpt: (§3) Rat bladders (5 groups of rats, n=3/group) were surgically catheterized under anesthesia and the catheter was externalized, tunneled subcutaneously, and connected to a vascular access harness (VAH) in the neck. […] Plasma and bladder samples were collected at all time points.

[16] = urine
Excerpt: On Day −7 a catheter was surgically placed in the bladder of each animal. The distal end of the catheter was anchored to a subcutaneous site and attached to a vascular access port (VAP). The port was secured and the animals were allowed to recover. Each animal was subsequently fitted with a portable infusion pump that was attached to the bladder catheter via the VAP. […] All excreted urine was collected in 24-hour intervals through Day 6 or 8. Blood samples were collected daily on study Days 1 to 8. Bladder tissue samples were collected from each animal at necropsy.

[17] = in vivo; conditions: female, Sprague-Dawley, rat
Excerpt: as §3

[18] = in vitro; conditions: minipig, bladder tissue
[19] = in vitro; conditions: rat, bladder tissue
[20] = in vitro; conditions: human, bladder tissue
[21] = in vitro; conditions: bladder tumor tissue

In Vitro Permeation ([1]; material EVA (CoTran 9712)): Δ
In Vitro Permeation ([1]; material Silicone (MED-4750)): X
In Vitro Permeation ([1]; material TPU (AC-4075A)): X
In Vitro Permeation ([1]; material TPU (AR-62A)): X
In Vitro Permeation ([1]; material TPU (EG-80A)): Δ
In Vitro Permeation ([1]; material TPU (HP-60D-35)): ◯
In Vitro Permeation ([1]; material TPU (HP-93A-100)): ◯
In Vitro Permeation ([1]; material TPU (PC-3575A)): X
In Vitro Permeation ([1]; material TPU (TT-1074A)): X
Observations (release profile) ([2]; device AR-62A base with HP-60D-35 stripe): Release profile shows more pH
Observations (release profile) ([2]; device EG-80A base with HP-60D-35 stripe): Release profile shows more pH
stability in urine ([3]; 6 hours): sufficiently stable
recovery at 6 h ([3]; human urine spiked at 1, 3, and 5 μg/mL): 89 to 98%
stability in urine ([4]; 6 hours): sufficiently stable
recovery at 6 h ([4]; minipig urine spiked at 1, 3, and 5 μg/mL): 92 to 93%
stability in urine ([5]; 6 hours): sufficiently stable
recovery at 6 h ([5]; rat urine spiked at 1, 3, and 5 μg/mL): 90 to 95%
Percent erdafitinib free in urine [6]: 84%
Percent erdafitinib free in urine [7]: 97%
Percent erdafitinib free in urine [8]: 95%
solubility [12]: significant pH-dependent solubility
pH dependency of release by drug format [13]: significant pH dependency
exposure levels in s.c. tumors lower than in orthotopic tumors [14]: Roughly 2 fold
C96 h [15]: BQL
C120 h [15]: BQL
Daily erdafitinib recoveries, of average daily amount administered [16]: 15.7%
concentration at 96 h ([17]; C96 h): 56.9 ng/mL
concentration at 120 h ([17]; C120 h): 10.7 ng/mL
fraction unbound [18]: 0.79
fraction unbound [19]: 0.33
fraction unbound [20]: 0.39
fraction unbound [21]: 0.4
Structure (SMILES): COc1cc(OC)cc(N(CCNC(C)C)c2ccc3ncc(-c4cnn(C)c4)nc3c2)c1 [Erdafitinib, N-(3,5-dimethoxyphenyl)-N′-(1-methylethyl)-N-[3-(1-methyl-1H-pyrazol-4-yl)quinoxalin-6-yl]ethane-1,2-diamine]
ERK1/2 phosphorylation in UM-UC-1 tumors ([9]; 6 mg/kg intravesical and 20 mg/kg oral doses, 2 hours post dosing): statistically significant decrease
pERK/ERK ([9]; 2 hours post dose, IVES, 6 mg/kg, relative to vehicle group): 0.62
pERK/ERK ([9]; 2 hours post dose, p.o., 20 mg/kg, relative to vehicle group): 0.52
pERK/ERK ([9]; 7 hours post dose, IVES, 6 mg/kg, relative to vehicle group): 0.60
pERK/ERK ([9]; 7 hours post dose, p.o., 20 mg/kg, relative to vehicle group): 0.61
pERK/ERK ([9]; 48 hours post dose, IVES, 6 mg/kg, relative to vehicle group): 0.71
pERK/ERK ([9]; 48 hours post dose, p.o., 20 mg/kg, relative to vehicle group): 0.76
pERK/ERK ([9]; 120 hours post dose, IVES, 6 mg/kg, relative to 48-hour vehicle group): 0.98
pERK/ERK ([9]; 120 hours post dose, p.o., 20 mg/kg, relative to 48-hour vehicle group): 1.22
percentage change in body weight vs vehicle control ([10]; 0.5, 1.0, and 5.0 μg/mL treatment groups): Statistically non-significant difference
bladder weight vs vehicle control ([10]; 0.5, 1.0 and 5 μg/mL nominal urine concentrations): significant dose-related decrease
cage side observations ([10]; all treatment groups): no visible signs of abnormal behavior or clinical symptoms
bladder weight vs vehicle control ([11]; 1.0 μg/mL perfusate concentration): significant bladder weight reduction
bladder weight decrease vs vehicle control ([11]; 0.25 and 0.5 μg/mL dose groups): not statistically significant
percentage change in body weight vs vehicle control ([11]; 0.5, 1.0, and 5.0 μg/mL treatment groups, except Group 4 on Day 11): Statistically non-significant difference
body weight loss, maximum mean values ([11]; erdafitinib-treated group, Day 11): up to −3%
